The source of these data is PMC12169475 (ACS Medicinal Chemistry Letters, 2025).

Ends that are not written are not given here.

For data set [1], the system named is E. coli ATCC 25922. To be noted: for Modal MIC: E. coli ATCC 25922, cation-adjusted MHB, ~5 x 10^5 CFU/mL, 37°C 20 h, OD600, triplicate experiments in duplicate (n = 6); for Selectivity index (HaCat LC50 / MIC): E. coli ATCC 25922 over HaCat cells. As to the method: (§1) Antibacterial activity against a panel of standard laboratory strains and clinical isolates.
(§2) Antimicrobial activity was evaluated against a panel of Gram-negative bacteria maintained by H3D, University of Cape Town, consisting of six laboratory reference strains and two clinical isolates. Briefly, bacterial colonies from an LB agar plate were picked and cultured in cation-adjusted Mueller Hinton broth (MHB) at 37°C with 180 rpm shaking, overnight. Cultures were […]
(§3) back diluted to reach a starting optical density at 600 nm (OD600) of 0.1 and then diluted 100- […]
(§4) media down polypropylene 96-well plates. Inoculum was added at a 1:1 ratio resulting in a […]
(§5) (Suppl. Table S2). Plates were incubated at 37°C for 20 h and the OD600 determined. Minimum inhibition concentrations (MICs) were determined from a minimum of three biological repeats. […]
(§6) the background absorbance.
(§7) Caution! All bacterial work was conducted using appropriate biosafety level 2 (BSL-2) practices.

The subject of data set [2] is HaCat cells. The data set is described as follows: In vitro cytotoxicity screening against epidermal HaCat cells (MTT). To be noted: 24 h exposure in total (21 h + 3 h MTT), OD570, three independent experiments in duplicate (n = 6).
Data set [3] has as its system A. baumannii ATCC 19606. To be noted: for Modal MIC: A. baumannii ATCC 19606, cation-adjusted MHB, ~5 x 10^5 CFU/mL, 37°C 20 h, OD600, n = 6; for Selectivity index (HaCat LC50 / MIC): A. baumannii ATCC 19606 over HaCat cells. The protocol:
as §1, §2, §3, §4, §5, §6, §7
(§8) Clinical isolates and reference strains were handled in a biosafety cabinet with proper PPE to prevent exposure and contamination.

For data set [4], the system named is E. coli ATCC 700928. To be noted: for Modal MIC: E. coli ATCC 700928, cation-adjusted MHB, ~5 x 10^5 CFU/mL, 37°C 20 h, OD600, n = 6; for Selectivity index (HaCat LC50 / MIC): E. coli ATCC 700928 over HaCat cells. As to the method:
as §1, §2, §3, §4, §5, §6, §7, §8

Data set [5] concerns A. baumannii NICD 15283 (C). To be noted: for Selectivity index (HaCat LC50 / MIC): A. baumannii NICD 15283 clinical isolate over HaCat cells; for Modal MIC: A. baumannii NICD 15283 clinical isolate, cation-adjusted MHB, ~5 x 10^5 CFU/mL, 37°C 20 h, OD600, n = 6. As to the method:
as §1, §2, §3, §4, §5, §6, §7, §8

Data set [6] concerns E. cloacae ATCC 700323. To be noted: for Modal MIC: E. cloacae ATCC 700323, cation-adjusted MHB, ~5 x 10^5 CFU/mL, 37°C 20 h, OD600, n = 6; for Selectivity index (HaCat LC50 / MIC): E. cloacae ATCC 700323 over HaCat cells. As to the method: as §1, §2, §3, §4, §5, §6, §7, §8
For data set [7], the system named is P. aeruginosa PAO1. To be noted: for Modal MIC: P. aeruginosa PAO1, cation-adjusted MHB, ~5 x 10^5 CFU/mL, 37°C 20 h, OD600, n = 6; for Selectivity index (HaCat LC50 / MIC): P. aeruginosa PAO1 over HaCat cells. As to the method:
as §1, §2, §3, §4, §5, §6, §7, §8

Data set [8] concerns E. cloacae NICD 16103 (C). To be noted: for Selectivity index (HaCat LC50 / MIC): E. cloacae NICD 16103 clinical isolate over HaCat cells; for Modal MIC: E. cloacae NICD 16103 clinical isolate, cation-adjusted MHB, ~5 x 10^5 CFU/mL, 37°C 20 h, OD600, n = 6. As to the method:
as §1, §2, §3, §4, §5, §6, §7, §8

Data set [9] deals with K. pneumoniae ATCC BAA-1705. To be noted: for Modal MIC: K. pneumoniae ATCC BAA-1705, cation-adjusted MHB, ~5 x 10^5 CFU/mL, 37°C 20 h, OD600, n = 6; for Selectivity index (HaCat LC50 / MIC): K. pneumoniae ATCC BAA-1705 over HaCat cells. As to the method:
as §1, §2, §3, §4, §5, §6, §7, §8

Data set [10] relates to A. baumannii NICD 15283 (C). More on the design: key: S - Susceptible; R - Resistant; I – Intermediate. To be noted: A. baumannii NICD 15283 clinical isolate; ref NICD; cited from earlier work.
Data set [11] has as its system E. cloacae NICD 16103 (C). More on the design: key: S - Susceptible; R - Resistant; I – Intermediate. To be noted: E. cloacae NICD 16103 clinical isolate; ref NICD; cited from earlier work.

Take GRVWRWIRSTARRLWN-NH2 [Opis16aKR]: the “Modal MIC” value is 8 (8×) μg/mL in data set [1]; 4 µg/mL in data set [3]; 4 µg/mL in data set [4]; 8 µg/mL in [5]; 8 (8×) μg/mL in data set [6]; 4 µg/mL in data set [7]. In addition, the “Modal MIC” value in data set [8] is 4 (4×) μg/mL; in data set [9] it was 16 µg/mL. Further, the “Selectivity index (HaCat LC50 / MIC)” value is recorded as 16.4 in data set [1]; 32.9 in data set [3]; 32.9 in data set [4]; 16.4 in data set [5]; 32.9 in data set [7]; 32.9 in data set [8]. Also, the “Selectivity index (HaCat LC50 / MIC)” value in data set [9] is reported as 8.21. Moreover, the “HaCat toxicity LC50 + SD” value in data set [2] worked out at 131 ± 5 µg/mL.

For the compound GKVWKWIKSTAKKLWN-NH2 [Opis16aD5K], the “Modal MIC” value in data set [1] is 16 µg/mL; in data set [3], 8 µg/mL; in [5] it was 8 µg/mL; in data set [6] it was 16 µg/mL; in [7] it was 8 µg/mL; in data set [8], 8 µg/mL. Moreover, the “Modal MIC” value in data set [9] was found to be 16 µg/mL. In addition, in [2], the “HaCat toxicity LC50 + SD” value came out at 148 ± 6 µg/mL. The “Selectivity index (HaCat LC50 / MIC)” value in [3] was 18.5; in data set [5] it was 18.5; in data set [6] it was 9.27; in data set [7], 18.5; in [8], 18.5; in data set [9], 9.27.

On to `CNC(C)C1CCC(N)C(OC2C(N)CC(N)C(OC3OCC(C)(O)C(NC)C3O)C2O)O1` (stereo not drawn) [Gentamicin, reference compound], for which the “Modal MIC” value in [1] was 0.5 µg/mL; in [3], 32 µg/mL; in data set [4], 0.5 µg/mL; in [5], 16/32; in [6], 2 µg/mL; in data set [7], 4 µg/mL. The “Modal MIC” value in [8] is > 32 µg/mL; in data set [9], 1/2. The Antimicrobial susceptibility profile result in data set [10] and in data set [11] was “R” in each case.

`CN(C)[C@@H]1C(O)=C(C(N)=O)C(=O)[C@@]2(O)C(O)=C3C(=O)c4c(O)cccc4[C@@](C)(O)[C@H]3C[C@@H]12` [Tetracycline]: the Antimicrobial susceptibility profile entry in data set [10] and in [11] was “R” throughout.

Regarding `CC1(C)[C@H](C(=O)O)N2C(=O)C[C@H]2S1(=O)=O` [Sulbactam], the Antimicrobial susceptibility profile result in data set [10] is recorded as “I”; in data set [11], “R”.

For the compound `C[C@@H](O)[C@H]1C(=O)N2C(C(=O)O)=C(S[C@@H]3CN[C@H](C(=O)N(C)C)C3)[C@H](C)[C@H]12` [Meropenem, reference compound], the Antimicrobial susceptibility profile result in [10] and in [11] was “R” throughout. Besides, the “Modal MIC” value in [5] is 32 µg/mL; in data set [8], 16 µg/mL.

In the case of GRVWRWIKSTAKKLWN-NH2 [Opis16aNterKR], the “Modal MIC” value was 8 (8×) μg/mL in data set [1]; 4 µg/mL in data set [3]; 4 µg/mL in [4]; 8 µg/mL in data set [5]; 16 µg/mL in [6]; 4 µg/mL in data set [7]. For the same compound, the “Modal MIC” value is 8 µg/mL in data set [8] and 16 µg/mL in data set [9]. Besides, the “Selectivity index (HaCat LC50 / MIC)” value in [1] turned out to be 17.3; in data set [3], 34.6; in data set [4], 34.6; in data set [5], 17.3; in [6] it was 8.64; in data set [7], 34.6. Also, the “Selectivity index (HaCat LC50 / MIC)” value in [8] was 17.3; in data set [9], 8.64. Moreover, the “HaCat toxicity LC50 + SD” value in data set [2] was found to be 138 ± 14 µg/mL.

Polymyxin B [reference compound]: the “Modal MIC” value worked out at 0.25 µg/mL in data set [1]; 1 µg/mL in data set [3]; 0.5 µg/mL in [4]; 1 µg/mL in data set [5]; 0.25 µg/mL in [6]; 0.5 µg/mL in data set [9].

`O=C(O)c1cn(C2CC2)c2cc(N3CCNCC3)c(F)cc2c1=O` [Ciprofloxacin, reference compound]: the “Modal MIC” value was 0.25 µg/mL in [4], 0.5 µg/mL in data set [7] and > 32 µg/mL in data set [9].

Consider `C[C@@H](O)[C@H]1C(=O)N2C(C(=O)O)=C(SCCN=CN)C[C@H]12` [Imipenem], for which the Antimicrobial susceptibility profile entry in data set [10] and in data set [11] was “R” in each case.

As for `NCC[C@H](O)C(=O)N[C@@H]1C[C@H](N)[C@@H](O[C@H]2O[C@H](CN)[C@@H](O)[C@H](O)[C@H]2O)[C@H](O)[C@H]1O[C@H]1O[C@H](CO)[C@@H](O)[C@H](N)[C@H]1O` [Amikacin], the figures for the Antimicrobial susceptibility profile result in data set [10] and in [11] were “R” and “S”, respectively.

For `CC[C@H](C)[C@H](NC(=O)CN)C(=O)NCC(=O)N[C@@H](C)C(=O)N[C@H](C(=O)N[C@@H](CC(C)C)C(=O)N[C@@H](CCCCN)C(=O)N[C@H](C(=O)N[C@@H](CC(C)C)C(=O)N[C@H](C(=O)N[C@H](C(=O)NCC(=O)N[C@@H](CC(C)C)C(=O)N1CCC[C@H]1C(=O)N[C@@H](C)C(=O)N[C@@H](CC(C)C)C(=O)N[C@H](C(=O)N[C@@H](CO)C(=O)N[C@@H](Cc1c[nH]c2ccccc12)C(=O)N[C@H](C(=O)N[C@@H](CCCCN)C(=O)N[C@@H](CCCNC(=N)N)C(=O)N[C@@H](CCCCN)C(=O)N[C@@H](CCCNC(=N)N)C(=O)N[C@@H](CCC(N)=O)C(=O)N[C@@H](CCC(N)=O)C(N)=O)[C@@H](C)CC)[C@@H](C)CC)[C@@H](C)O)[C@@H](C)O)C(C)C)C(C)C` [Melittin, reference compound], the “Modal MIC” value in [4] stood at 4 µg/mL; in data set [5], 4 µg/mL; in data set [7] it was 2 µg/mL; in data set [8], 8 µg/mL.

On to `NC[C@H]1O[C@H](O[C@H]2[C@H](O)[C@@H](O[C@H]3O[C@H](CO)[C@@H](O)[C@H](N)[C@H]3O)[C@H](N)C[C@@H]2N)[C@H](N)C[C@@H]1O` [Tobramycin], for which the Antimicrobial susceptibility profile result in [10] and in data set [11] was “R” each time.
